Results published in ChEMBL document CHEMBL3792301, “Isatin derivatives with activity against apoptosis-resistant cancer cells” (Bioorg Med Chem Lett, 2016).

Tests used:
LoVo = experiment: Antiproliferative activity against human LoVo cells after 72 hrs by MTT assay; assay type: functional, cell-based
[1] = Antiproliferative activity against apoptosis resistant human U373 cells after 72 hrs by MTT assay; assay type: functional, cell-based, U-373MG ATCC; details: U373 MG
A549 = experiment: Antiproliferative activity against apoptosis resistant human A549 cells after 72 hrs by MTT assay; assay type: functional, cell-based; details: A549, 72 h
[2] = Antiproliferative activity against apoptosis resistant human OE21 cells after 72 hrs by MTT assay; assay type: functional, cell-based; details: OE21, 72 h
SK-MEL-28 = experiment: Antiproliferative activity against apoptosis resistant human SK-MEL-28 cells after 72 hrs by MTT assay; assay type: functional, cell-based; details: SK-MEL-28, 72 h
[3] = Antiproliferative activity against apoptosis sensitive human Hs683 cells after 72 hrs by MTT assay; assay type: functional, cell-based; details: Hs 683, 72 h
[4] = Antiproliferative activity against apoptosis sensitive mouse B16F10 cells after 72 hrs by MTT assay; assay type: functional, cell-based; details: B16-F10, 72 h
[5] = Antiproliferative activity against apoptosis sensitive human PC3 cells after 72 hrs by MTT assay; assay type: functional, cell-based; details: PC-3, 72 h
MCF7 = experiment: Antiproliferative activity against apoptosis sensitive human MCF7 cells after 72 hrs by MTT assay; assay type: functional, cell-based; details: MCF7, 72 h

Row | SMILES | IC50 (LoVo) | IC50 [1] | IC50 (A549) | IC50 [2] | IC50 (SK-MEL-28) | IC50 [3] | IC50 [4] | IC50 [5] | IC50 (MCF7)
1 | O=C1NC(=O)/C(=C2/C(=O)Nc3ccccc32)N1 | 76.1 µM | > 100 µM | 66.5 µM | 52.3 µM | > 100 µM | 84.7 µM | 73.3 µM | 95.5 µM | 94.6 µM
2 | O=C1Nc2ccc(Br)cc2/C1=C1/Cc2ccccc2C1=O | 52.8 µM | 41.4 µM | > 100 µM | 56 µM | > 100 µM | 47.3 µM | 69.1 µM | > 100 µM | 65.2 µM
3 | O=C1Nc2ccccc2/C1=C1/Nc2ccccc2/C1=N\O | 8.9 µM | 18 µM | 27 µM | 8.1 µM | 26.6 µM | 6 µM | 5.4 µM | 24.3 µM | 9.2 µM
4 | O=C1Nc2c(F)cccc2/C1=C1/Nc2ccccc2/C1=N\O | 9 µM | 19.7 µM | 33.3 µM | 9.2 µM | 44.6 µM | 9.3 µM | 7.8 µM | 26 µM | 26.2 µM
5 | O=C1Nc2c(Cl)cccc2/C1=C1/Nc2ccccc2/C1=N\O | 10.2 µM | 31.5 µM | 45.2 µM | 19.6 µM | 40.1 µM | 25.3 µM | 12.9 µM | 29.7 µM | 27.5 µM
6 | O=C1Nc2ccccc2/C1=C1/Oc2ccccc2C1=O | 4.1 µM | 27.7 µM | 23.3 µM | 25.9 µM | 23.8 µM | 25.7 µM | < 0.01 µM | 36.1 µM | 0.3 µM
7 | O=C1Nc2ccc(Br)cc2/C1=C1/Nc2ccccc2/C1=N\O [INDIRUBIN 2] | 6.6 µM | 8 µM | 7.2 µM | 3.6 µM | 17.3 µM | 8.4 µM | 0.5 µM | 6.8 µM | 5.8 µM
8 | O=C1NC(=S)N/C1=C1\C(=O)Nc2ccccc21 | 60.2 µM | 51.9 µM | 45.8 µM | 38.7 µM | 62.9 µM | 52.9 µM | 41.6 µM | 75.5 µM | 87.8 µM
9 | O=C1Nc2c(F)cccc2/C1=C1/Nc2ccccc2C1=O | 42 µM | 45.8 µM | > 100 µM | 29 µM | > 100 µM | 38.7 µM | 16.3 µM | > 100 µM | 44.8 µM
10 | O=C1NC(=O)/C(=C2/C(=O)Nc3ccccc32)S1 | 5.2 µM | 86.4 µM | 60.7 µM | 38 µM | > 100 µM | 89.7 µM | 2.8 µM | 67.5 µM | > 100 µM
11 | O=C1Nc2ccccc2/C1=C1/Nc2ccccc2C1=O [INDIRUBIN] | > 100 µM | > 100 µM | > 100 µM | 30.5 µM | > 100 µM | > 100 µM | 0.2 µM | > 100 µM | > 100 µM
12 | CC1(C)CCC2=C(O1)c1ccccc1C(=O)C2=O [LAPACHONE] | 0.3 µM | 0.4 µM | 0.8 µM | 0.6 µM | 0.6 µM | 0.4 µM | 0.3 µM | < 0.01 µM | 0.5 µM
13 | O=C1Nc2c(Cl)cccc2/C1=C1/Nc2ccccc2C1=O | > 100 µM | > 100 µM | > 100 µM | 35.3 µM | > 100 µM | 55.2 µM | 15.7 µM | > 100 µM | > 100 µM
14 | O=C1Nc2c(Br)cccc2/C1=C1/Nc2ccccc2/C1=N\O | 5.6 µM | 6.6 µM | 13.9 µM | 3.9 µM | 9.8 µM | 8.1 µM | 5.3 µM | 7.8 µM | 4.9 µM
15 | O=C1Nc2ccc(Br)cc2/C1=C1/Nc2ccccc2C1=O | 12 µM | 8.6 µM | > 100 µM | 3.8 µM | > 100 µM | 14.1 µM | 3.8 µM | > 100 µM | 37.3 µM
16 | O=C1NC(=S)N/C1=C1\C(=O)Nc2c(Br)cccc21 | 37 µM | 4.7 µM | 3.8 µM | 20.2 µM | 11.7 µM | 40.8 µM | 5 µM | 22.8 µM | 51 µM
17 | O=C1Nc2ccccc2/C1=C1/Cc2ccccc2/C1=N\O | 18.7 µM | 28 µM | 28.7 µM | 27.8 µM | 33.7 µM | 22.9 µM | 32.6 µM | 33.1 µM | 38.5 µM
18 | O=C1Nc2c(Br)cccc2/C1=C1/Nc2ccccc2C1=O | 32.3 µM | 8.1 µM | > 100 µM | 8.7 µM | > 100 µM | 6.9 µM | 3.2 µM | > 100 µM | 52.8 µM
19 | O=C1Nc2ccccc2/C1=C1/Cc2ccccc2C1=O | 52.6 µM | > 100 µM | > 100 µM | 25.1 µM | > 100 µM | > 100 µM | > 100 µM | > 100 µM | 70.2 µM
20 | O=C1NC(=S)S/C1=C1\C(=O)Nc2ccc(Br)cc21 | 52.1 µM | 41.7 µM | 36.2 µM | 62.5 µM | 53.5 µM | 93.6 µM | 0.1 µM | 44.3 µM | 82.9 µM
21 | O=C1NC(=S)S/C1=C1\C(=O)Nc2ccccc21 | 69.3 µM | 85.3 µM | 99 µM | 47.2 µM | 96.6 µM | 93.3 µM | 73.5 µM | > 100 µM | > 100 µM
